{
  "source": "patent US20240374724A1",
  "about": "“ENPP1 INHIBITORS AND IMMUNE CELLS EXPRESSING CHIMERIC ANTIGEN RECEPTORS” (Angarus Therapeutics, Inc., priority 2021, published 2024)",
  "key": {"[1]": {"system": "B16F10 melanoma", "test": "B16F10 melanoma with pmel-1 donor splenocytes (adoptive T cell therapy): tumor size and tumor flow cytometry", "type": "in vivo, C57BL/6 mice", "text": "For the study, 0.2×10^6 B16F10 melanoma cells/mouse were implanted on day −8 on flanks of C57BL/6 female mice. On day 0, when tumor size had reached about 80 mm3, mice were randomized into 3 groups with an n=12/group. All mice in the three groups were subjected to whole body irradiation with 5.0 Gy for lymphodepletion. […] gp100 specific donor splenocytes were harvested from C57BL/6 pmel-1 donor mice (The Jackson Laboratory, world wide web.jax.org/strain/005023). Briefly, splenocytes comprising immune cells such as T cells from spleens of 18 pmel-1 female C57BL/6 mice (Jackson labs) were harvested yielding˜90 Million splenocytes. The pmel-1 splenocytes were isolated, the red blood cells lysed, and the remaining splenocytes expanded and activated with IL-2 and gp100 antigen for 4 days in vitro, and administered to the B16 melanoma bearing mice by i.v. On day 7, mice were sacrificed, and tumor, spleen, and blood samples were collected. Tumor size of all three treatment groups were measured on days 0, 2, 5 and 7 (FIGS. 6 and 7). […] After mice were sacrificed, tumor samples were tested for the fraction of several live immune cells (CD45+ cells) in the tumor. Briefly, tumors were harvested, and samples digested with tumor digestion mix and cells collected and washed in FACS buffer. A sample of cells was stained with a live/dead stain (ef780) to test for live cells and enumerated by flow cytometry. […] When staining for intracellular markers, cells were fixed and permeabilized before staining with markers (ki67). For example, cells were stained with markers for MDSC and F4/80 macrophages and enumerated by flow cytometry. […] Samples were also analyzed for the percentage of gp100+, CD8+ T cells actively proliferating (ki67+ cells) that were present in the tumor."}, "[2]": {"system": "IFN-γ secretion", "test": "IFN-γ ELISA / ELISpot of splenocytes from B16F10 tumor bearing mice given donor T cells", "type": "in vivo, C57BL/6 mice", "text": "This example describes the in vitro activation and expansion of donor C57BL/6 pmel-1 splenocytes by INF-γ ELISA and INF-γ Elispot analysis of splenocytes derived from B16F10 melanoma syngeneic tumor model inoculated with Pmel-1 donor splenocytes (T-cells). Briefly, spleens and splenocytes from C57BL-B16F10 tumor bearing mice treated with or without an ENPP1 inhibitor and donor T cells are harvested and purified as described in Example 8. To test for cytokine secretion, the isolated splenocytes are then plated and co-cultured with gp100 peptide on a plate of an ELISpot kit and IFN-γ secretion is detected. The number of spots is counted for each well and summarized for each group. Additionally, or alternatively, IFN-γ secretion is detected with a IFN-γ ELISA test."}, "[3]": {"system": "4T1-luciferase tumor", "test": "4T1-luciferase tumor model: IR with compound 1, cGAMP and/or anti-CTLA-4; tumor volume and survival", "type": "in vivo, Balb/c mice", "conditions": "20 Gy IR + 10 μg cGAMP intratumoral alone"}, "[4]": {"system": "4T1 tumor model", "test": "Tumor-associated dendritic cells in mouse 4T1 tumor model with or without IR (FACS)", "type": "in vivo, Balb/c mice", "conditions": "intratumoral 100 μL of 1 mM", "method": "Anaesthetized animals were shielded with a 3.2 mm lead shield with a 15×20 mm aperture where the tumor was placed. […] On the next day, the tumor was extracted and incubated in RPMI+10% FBS with 20 μg/mL DNase I type IV (Sigma-Aldrich) and 1 mg/mL Collagenase from Clostridium histolyticum (Sigma-Aldrich) at 37° C. for 30 min. […] Cells were stained with Live/Dead fixable near-IR dead cell staining kit (Thermo Fisher Scientific), Fc-blocked for 10 min using TruStain fcX and subsequently antibody-stained with CD11c, CD45, and I-A/I-E (all Biolegend). Cells were analyzed using an SH800S cell sorter (Sony) or an LSR II (BD Biosciences)."}, "[5]": {"system": "CD14+ IFNB1 expression", "procedure": "Primary human peripheral blood mononucleocyte cells (PBMCs) were isolated by subjecting enriched buffy coat from whole blood to a Percoll density gradient. CD14^+ monocytes were isolated using CD14^+ MicroBeads (Miltenyi). CD14^+ monocyctes were cultured in RPMI supplemented with 2% human serum and 100 U/mL penicillin-streptomycin. […] 24-26 hours following supernatant transfer, total RNA was extracted using Trizol (Thermo Fisher Scientific) and reverse transcribed with Maxima H Minus Reverse Transcriptase (Thermo Fisher Scientific). Real-time RT-PCR was performed in duplicate with AccuPower 2×Greenstar qPCR Master Mix (Bioneer) on a 7900HT Fast Real-Time PCR System (Applied Biosystems). Data were normalized to CD14 expression for each sample. Fold induction was calculated using ΔΔCt.\nSupernatant from these cells was transferred to primary CD14^+ human PBMCs. IFNB1 mRNA levels were normalized to CD14 and the fold induction was calculated relative to untreated CD14^+ cells."}, "[6]": {"biological_target": "T1, purified recombinant mouse ENPP1 (Mus musculus, UniProt P06802)", "T1 sequence (P06802 1-906)": "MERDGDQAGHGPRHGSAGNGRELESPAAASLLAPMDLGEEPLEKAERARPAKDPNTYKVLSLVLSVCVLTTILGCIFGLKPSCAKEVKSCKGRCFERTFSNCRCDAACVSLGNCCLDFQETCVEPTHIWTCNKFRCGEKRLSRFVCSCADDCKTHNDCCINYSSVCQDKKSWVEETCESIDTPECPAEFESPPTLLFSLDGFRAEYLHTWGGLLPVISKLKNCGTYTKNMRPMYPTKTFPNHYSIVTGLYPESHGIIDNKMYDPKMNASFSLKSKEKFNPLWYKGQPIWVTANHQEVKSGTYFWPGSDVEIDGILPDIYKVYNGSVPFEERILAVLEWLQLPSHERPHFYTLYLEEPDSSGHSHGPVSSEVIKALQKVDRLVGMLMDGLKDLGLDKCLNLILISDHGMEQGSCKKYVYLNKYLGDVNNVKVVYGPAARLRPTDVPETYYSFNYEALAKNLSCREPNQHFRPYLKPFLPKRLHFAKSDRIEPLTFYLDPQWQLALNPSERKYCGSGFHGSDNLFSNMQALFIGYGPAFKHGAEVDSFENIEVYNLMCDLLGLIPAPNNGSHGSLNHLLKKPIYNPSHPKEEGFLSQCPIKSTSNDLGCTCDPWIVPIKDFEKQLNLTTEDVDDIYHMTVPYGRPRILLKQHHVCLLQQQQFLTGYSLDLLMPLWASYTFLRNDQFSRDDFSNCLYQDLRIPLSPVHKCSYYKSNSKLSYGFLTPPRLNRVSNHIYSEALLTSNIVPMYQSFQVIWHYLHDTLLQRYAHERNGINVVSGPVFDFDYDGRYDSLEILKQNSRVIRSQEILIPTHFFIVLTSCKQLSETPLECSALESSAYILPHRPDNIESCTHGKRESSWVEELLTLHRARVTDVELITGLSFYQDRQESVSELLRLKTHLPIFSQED", "test": "ENPP1 activity assay using TMP-pNP as a substrate", "type": "biochemical", "conditions": "TMP-pNP 2 μM, mouse ENPP1 0.5 nM, pH 7.5", "method": "Selected compounds of Table 1, Table 2, Table 3, Table 4, Table 5, or Table 6 and other derivatives were prepared and assessed in an ENPP1 activity assay using thymidine monophosphate paranitrophenol (TMP-pNP) as a substrate. Enzyme reactions were prepared with TMP-pNP (2 μM), 5-fold dilutions of ENPP1 inhibitor, and purified recombinant mouse ENPP1 (0.5 nM) in 100 mM Tris, 150 mM NaCl, 2 mM CaCl2, 200 μM ZnCl2, pH 7.5 at room temperature. Reaction progress was monitored by measuring absorbance at 400 nm of paranitrophenolate produced by the reaction for 20 minutes."}, "[7]": {"conditions": "50 mg/kg plus donor splenocytes"}},
  "data": [
    {"smiles": "COc1cccc2c(N3CCC(CCP(=O)(O)O)CC3)ncnc12", "note": "[Compound 76]", "values": [
      {"measurement": "tumor size at day 7 compared to PBS with donor cells", "setting": "[1]; 5 mg/kg and donor T cells", "value": "smaller reduction in tumor size"},
      {"measurement": "percentage of F4/80+ macrophages in tumors compared to PBS with donor T cells", "setting": "[1]; 5 mg/kg plus donor T cells", "value": "higher"},
      {"measurement": "percentage of MDSC macrophages in tumors compared to PBS with donor T cells", "setting": "[1]; 5 mg/kg plus donor T cells", "value": "lower"},
      {"measurement": "percentage of live cells in tumors compared to PBS with donor T cells", "setting": "[1]; 5 mg/kg plus donor T cells", "value": "higher"},
      {"measurement": "percentage of Thy1.1+ (pmel-1 derived), gp100+, CD8+ donor T cells in tumors compared to PBS with donor splenocytes", "setting": "[1]; 5 mg/kg plus donor splenocytes", "value": "higher"},
      {"measurement": "percentage of Thy1.2+ host cells in tumors", "setting": "[1]; 5 mg/kg plus donor splenocytes", "value": "declined reciprocally"},
      {"measurement": "percentage of gp100+, CD8+, ki67+ T cells in tumors compared to PBS with donor splenocytes", "setting": "[1]; 5 mg/kg plus donor splenocytes", "value": "higher"},
      {"measurement": "tumor size at day 7 compared to PBS with donor cells", "setting": "[1]; 50 mg/kg and donor T cells", "value": "marked reduction in tumor size"},
      {"measurement": "percentage of F4/80+ macrophages in tumors compared to PBS with donor T cells", "setting": "[1]; 50 mg/kg plus donor T cells", "value": "higher"},
      {"measurement": "percentage of MDSC macrophages in tumors compared to PBS with donor T cells", "setting": "[1]; 50 mg/kg plus donor T cells", "value": "lower"},
      {"measurement": "percentage of live cells in tumors compared to PBS with donor T cells", "setting": "[1]; 50 mg/kg plus donor T cells", "value": "higher"},
      {"measurement": "percentage of Thy1.1+ (pmel-1 derived), gp100+, CD8+ donor T cells in tumors compared to PBS with donor splenocytes", "setting": "[1]; [7]", "value": "higher"},
      {"measurement": "percentage of Thy1.2+ host cells in tumors", "setting": "[1]; [7]", "value": "declined reciprocally"},
      {"measurement": "percentage of gp100+, CD8+, ki67+ T cells in tumors compared to PBS with donor splenocytes", "setting": "[1]; [7]", "value": "higher"},
      {"measurement": "IFN-γ secretion compared to PBS with donor T cells", "setting": "[2]; 5 mg/kg plus donor T cells", "value": "elevated"},
      {"measurement": "IFN-γ secretion compared to PBS with donor T cells", "setting": "[2]; 50 mg/kg plus donor T cells", "value": "elevated"}
    ]},
    {"smiles": "Nc1nc2c(ncn2[C@@H]2O[C@@H]3COP(=O)(O)O[C@H]4[C@@H](O)[C@H](n5cnc6c(N)ncnc65)O[C@@H]4COP(=O)(O)O[C@@H]2[C@@H]3O)c(=O)[nH]1", "note": "[cGAMP, cyclic guanosine monophosphate-adenosine monophosphate]", "values": [
      {"measurement": "effect over IR treatment (tumor)", "setting": "[3]", "value": "no effect"}
    ]},
    {"smiles": "COc1cc2ncnc(N3CCC(CCP(=O)(O)O)CC3)c2cc1OC", "note": "[compound 1]", "values": [
      {"measurement": "tumor-associated leukocyte compositions compared to the PBS control", "setting": "[4]; no IR", "value": "did not change"},
      {"measurement": "tumor associated CD11c+ population", "setting": "[4]; tumors pretreated with 20 Gy IR", "value": "increased"},
      {"measurement": "extracellular cGAMP levels", "setting": "[5]; 293T cGAS ENPP1low cells transiently overexpressing ENPP1", "value": "rescued"},
      {"measurement": "CD14+ IFNB1 expression", "setting": "[5]; supernatant of ENPP1-overexpressing 293T cGAS ENPP1low cells transferred to CD14+ monocytes", "value": "induced"}
    ]},
    {"smiles": "O=P(O)(O)CCC1CCN(c2ncnc3ccccc23)CC1", "note": "[compound 25]", "values": [
      {"measurement": "IC50", "setting": "[6]", "value": "0.005 to 0.05", "unit": "µM"}
    ]}
  ]
}
